The subject of the assay is OVSAHO cells. Put plainly: Cell viability of OVSAHO cells. Format: cell-based, human. To be noted: 50 nM and 100 nM, 24 h.

For the compound `CC(C)C[C@H](NC(=O)[C@H](Cc1ccccc1)NC(=O)c1cnccn1)B(O)O` [BTZ, bortezomib], the “cell viability of OVSAHO cells treated with solely BTZ” value is recorded as “cell compatible”.

(Values after PMC7725443 (Advanced healthcare materials, 2020).)
